Data published in patent US20240361265A1, “APPARATUS AND METHODS FOR EXTRACELLULAR IMPEDANCE SPECTROSCOPY OF BARRIER CELLS” (Georgia Tech Research Corporation, priority 2023, published 2024).

Assays:
iPSC-derived RPE = experiment: Combined intracellular pipette and EIS (3P-EIS) recording of iPSC-RPE response to apical ATP in modified Ussing chamber; type: cell-based, human; details: for membrane-specific capacitance changes: apical ATP stimulation
Description: Human iPSC-RPE cells. The study performed the protocol for induced pluripotent stem cell (iPSC) differentiation described in [29]. Briefly, for each individual iPSC line, somatic cells (blood or fibroblasts) were isolated from a single donor and were reprogrammed using the Sendai virus or episomal reprograming methods. Reprogramed iPSC colonies were differentiated into RPE using the protocol described by Sharma et al.. iPSC-derived RPE cells were seeded onto Corning 3406 Transwells, with a seeding density of 300,000 cells/cm^2 and 250,000 cells/cm^2 and were measured at approximately 300 days old. Fully-mature RPE cells were characterized with a transmission electron microscope (TEM) for morphology, gene expression, and immunostaining for RPE-specific markers. For iPSC genotype, TaqMan genotyping assays (ThermoFisher) were used. The following probes were tested: rs1061170 (Assay ID: AHI1TPW; 4331349); rs2230199 (Assay ID: C_26330755_10; 4351379). SNP rs10490924 (Assay ID: C_29934973_20; 4351379). Two human donors were used to derive iPSC-RPE for this experiment. Samples 1 and 2 were derived from donor A, and sample 3 was derived from donor B.
Tissue mounting and maintenance. The study performed the method for mounting the tissue into the modified Ussing chamber for electrophysiology described in [32]. Briefly, a 7 mm diameter, circular section of the iPSC-RPE Transwell was punched out, mounted, and sealed into the chamber, apical side up. Electrical current leak, due to poor sealing between the Ussing chamber and the Transwell punch-out, was minimized by placing a nylon mesh insert beneath the sample so that the iPSC-RPE made contact around the entire circumference of the chamber. The total exposed tissue cross-section was approximately 0.11 cm^2. Experimental solutions were perfused across both sides of the tissue for the entire duration of the experiment.
Electrophysiological solution. The standard, control solution was the same modified Ringer's solution as has been described previously. In brief, the solution contains (in mM): 5 KCl, 116.5 NaCl, 23 NaHCO3, 0.5 MgCl2, 1.8 CaCl2, 2 taurine, 5 glucose, and 10 sucrose. All salts (except for CaCl2) were mixed into de-ionized water at room temperature (20 C). The solution was bubbled for approximately 5 minutes with 95% CO2 before the addition of CaCl2. […] During an experiment, the solution was continuously bubbled with a custom gas mixture (5% CO2, 10% 02, and 85% N2) to maintain the Ringer's solution to a pH near 7.4±0.1.
Measurement Setup and Electrode Configuration. To measure the apical and basolateral bath voltages, Ringer-filled 3.5% agar bridges were connected to saturated KCl baths with submerged, double-junction AgCl reference electrodes (Fisher Scientific, Accumet, cat. No. 13-620-855). AgCl-coated Ag wires (0.01″ diameter) were submerged directly into the apical and basolateral baths to apply current across the tissues during galvanostatic measurements. The Ussing chamber was rotated approximately 30 degrees from horizontal during each experiment to simultaneously enable equal fluidic pressures across the epithelia while simultaneously allowing for apical bath access for intracellular pipettes.
The study performed the protocol for inserting a pipette into the cell's cytoplasm (FIG. 5C, node 3) for intracellular recordings described in [32]. Briefly, a LabVIEW-based controller was used to insert a pipette—backfilled with 150 mM NaCl—into the cytoplasm of a single cell using an N-565.260 piezoelectric motor connected to an E-861.1A1 single-axis controller box (Physik Instrumente). The pipette voltage was amplified using a Multiclamp 700B (Molecular Devices) amplifier, and the trans-epithelial potential (TEP) signal was amplified using a VCC 600 (Physiologic Instruments). The primary output of the Multiclamp 700B had the settings: 10 mV/mV in “Membrane Potential” mode with “gain” set to 1, and the Bessel filter was set to 30 kHz. […]

iPSC-RPE (Z8) = experiment: Extracellular EIS of iPSC-RPE response to apical ATP in perfusion chamber versus Ussing chamber; type: cell-based, human
Description: EIS measurements were performed with an Autolab PGSTAT204 with a FRA32M […] (Utrecht, Netherlands). The device was controlled with the provided NOVA 2.1.5 software to perform frequency sweeps from 0.1 Hz to 10 kHz. The NOVA software was used to send up to 5 simultaneous frequencies spaced to approximately 5 unique measurements per decade. The PGSTAT working electrode was connected to the working electrode and counter electrode; the sense and reference electrodes were connected to the basal and apical baths through the Ringer-based agar bridges (connected to Ag|AgClreference electrodes in a saturated KCl bath), respectively.
Chamber design and extracellular epithelial properties: A custom device was assembled to rapidly and noninvasively evaluate the evoked responses and recovery of RPE to extracellular ATP (FIG. 4.3).
The “perfusion” chamber in FIG. 8A was created using the same Acrylic material as the Ussing chamber but was designed to interface with an intact, 12-well Transwell insert (Corning costar 3460). Ag|AgCl wires were used as the working and counter electrodes. These electrodes were shaped into a symmetric ring of maximum diameter that fits inside the chamber and placed as far from the epithelia as possible to maximize uniformity of the current flux across the tissue. The sense and reference electrodes (used to measure TEP) were single-junction KCl reference electrodes. The KCl reference electrode was constructed with an Ag|AgCl wire that was inserted in a glass body (1.5 mm outer diameter) and backfilled with 3 M KCl. The terminus of these electrodes was made of a Vycor frit that enabled electrical contact between the 3 M KCl solution and the perfusate. Ag|AgCl electrodes were selected due to their rapid and reversible redox reactions, and the bridges were designed to minimize the effect of drifting Cl− ion concentrations on the electrode junction potential. The sense and reference electrodes were inserted through the cylinders extruding through the top of the device such that they were positioned as close as possible to the tissue. The design of the Acrylic cylinders included a kinematic constraint for the electrodes to ensure that the distance between the tissue and voltage-sensing probes was consistent across all experiments.
For example, the magnitudes of extracellular tissue properties in normal Ringer's solution should be compared.
Furthermore, to ensure that the perfusion device can maintain the health and function of epithelia during long experiments, a simple experiment was devised to last at least 45 min; sufficient for rigorous RPE experiments performed in literature ([39′], [7′]). During this experiment the tissues were briefly exposed (approximately 10 min) to 100 μM ATP at the apical membrane. […]

Nc1ncnc2c1ncn2[C@@H]1O[C@H](COP(=O)(O)OP(=O)(O)OP(=O)(O)O)[C@@H](O)[C@H]1O [ATP, adenosine triphosphate]
apical membrane resistance decrease (iPSC-derived RPE; 100 μM apical ATP exposure, sample 1): 62%
apical membrane resistance increase (iPSC-derived RPE; 100 μM apical ATP exposure, sample 2): 89%
apical membrane resistance increase (iPSC-derived RPE; 100 μM apical ATP exposure, sample 3): 139%
membrane-specific capacitance changes (iPSC-derived RPE; Sample 1): did not display ATP650-induced changes
membrane-specific capacitance changes (iPSC-derived RPE; Samples 2 and 3): concurrent reductions in apical capacitance and elevations in basolateral capacitance
depolarization of the apical membrane (Va) (iPSC-derived RPE; by the end of the ATP exposure, all three samples): approximately 20 mV
change in apical capacitance Ca (iPSC-derived RPE; during ATP administration): 12%
change in basolateral capacitance Cb (iPSC-derived RPE; during ATP administration): −6%
TER response (iPSC-derived RPE; during ATP exposure, 3P-Classical or exemplary method): decrease in TER
basolateral resistance (Rb) response (iPSC-derived RPE; during ATP exposure, Sample 3): expected reduction
shunt resistance (Rs) response (iPSC-derived RPE; during ATP exposure, all samples): rapid and substantial decrease
depolarization of the apical membrane (Va) (iPSC-derived RPE; first phase of the ATP-induced response, Sample 3): 10 mV
depolarization of the apical membrane (Va) (iPSC-derived RPE; first phase of the ATP-induced response, Samples 1 and 2): 20 mV
TEP response (iPSC-derived RPE; remainder of the ATP exposure, all three samples): increase in TEP
tissue capacitance (Ct) average decrease (iPSC-RPE (Z8); 100 μM apical ATP, about 10 min, Ussing chamber): 3%
tissue capacitance (Ct) average increase (iPSC-RPE (Z8); 100 μM apical ATP, about 10 min, perfusion chamber): 11%
time to return to within 95% of baseline after ATP (iPSC-RPE (Z8); both perfusion and Ussing chambers): ≤ 40 min
extracellular time constant ratio response (iPSC-RPE (Z8); during ATP exposure, samples 1, 2 and 3, Ussing chamber): increased in magnitude
